Data from patent US4161542A, “Heart active compounds” (priority 1975, dated 1979).
Like-named read-outs stand apart in the source and are kept apart here.

Tests used:
β-receptors = assay: β-blocking activity in reserpinized anesthetized cat (block of isoprenaline effect on heart rate and peripheral resistance; intrinsic activity); assay type: in vivo; conditions: for Block of isopren. ED50 HR (heart rate blockade) / Block of isopren. ED50 PR (peripheral resistance blockade): cumulative doses, vs isoprenaline i.v.; for Block of isopren. ED50 PR (peripheral resistance blockade): peripheral vascular resistance; for Intrinsic activity (increase in heart rate relative to basal): after final dose giving 100% blockade of isoprenaline response
Protocol: Anesthetized cats (males and females weighing 2.5-3.5 kg) were pretreated with reserpine (5 mg/kg bodyweight administered intramuscularly) about 16 hours before the experiments. The animals were pretreated with reserpine in order to eliminate the endogenous sympathetic control of heart rate and vascular smooth muscle tone. The cats were anesthetized with pentobarbital (30 mg/kg bodyweight administered i.p.) and artificially ventilated with room air. A bilateral vagotomy was performed in the neck. Blood pressure was obtained from a cannulated carotid artery and heart rate was registered from a cardiotachometer, triggered by the electrocardiogram (ECG). One […] artery was cannulated and perfused with the cat's own blood, delivered at a constant flow rate with a Watson Marlow roller pump. The perfusion pressure was recorded with a Statham pressure transducer. The blood flow rate was so adjusted that the initially recorded perfusion pressure was slightly above the systemic arterial mean blood pressure. In the studied hind limb the paw was excluded from the circulation by a tight ligature. An isoprenaline dose administered intravenously was established giving a submaximal heart rate (HR) increase and a submaximal decrease of peripheral vascular resistance (PR). The latter is shown as a drop of perfusion pressure.
To start the test, an initial dose of the test compound is injected into the animal. Ten minutes afterward the predetermined dose of isoprenaline is injected and the effect of the isoprenaline on the heart rate and peripheral resistance is noted. By comparing these observations with the normal response of the test animal to the predetermined dose of isoprenaline, the percent blockade of the HR and PR caused by the initial dose of test compound is calculated. The experiment is repeated with logrithmically increasing doses of the test compound (on a cumulative basis), alternating with the predetermined dose of isoprenaline every 10 minutes.
After the final dose of the test compound is administered--which is sufficient to cause a 100% blockade of the isoprenaline response--the intrinsic activity of the test compound is noted as the increase in heart rate relative to the basal heart rate of the test animal before the experiment began.

α-receptor = molecular target: T1, α-receptor (Rattus norvegicus, UniProt P43140); assay: α-blocking activity in isolated rat vas deferens (antagonism of noradrenaline contraction)
T1 construct: from tissue; host or cells: isolated rat vas deferens
T1 sequence (P43140 1-466): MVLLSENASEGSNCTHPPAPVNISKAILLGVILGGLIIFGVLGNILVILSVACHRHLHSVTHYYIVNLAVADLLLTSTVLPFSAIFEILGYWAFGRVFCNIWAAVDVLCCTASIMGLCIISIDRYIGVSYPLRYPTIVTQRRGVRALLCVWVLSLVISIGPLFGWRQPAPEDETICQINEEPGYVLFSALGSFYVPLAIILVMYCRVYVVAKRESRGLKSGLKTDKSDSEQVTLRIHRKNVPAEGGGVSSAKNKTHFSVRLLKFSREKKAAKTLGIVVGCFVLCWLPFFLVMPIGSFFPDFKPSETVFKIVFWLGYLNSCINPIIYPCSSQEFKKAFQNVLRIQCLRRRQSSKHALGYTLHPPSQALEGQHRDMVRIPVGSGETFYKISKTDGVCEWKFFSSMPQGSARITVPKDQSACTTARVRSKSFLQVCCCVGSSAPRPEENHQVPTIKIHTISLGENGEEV
Protocol: α-blocking activity was tested in isolated rat vas deferens. Rats were decapitated and the vas deferens was immediately dissected out and mounted in an oxygenated Krebs Ringer solution at 37° C. Noradrenaline administered to the bath caused α-receptor mediated contraction of vas deferens, which was recorded with an isometric tension transducer. Dose response curves to noradrenaline were constructed before and after three increasing doses of the test compound. By using Schildt plots pA2 values for α-receptor blockade were obtained. By definition pA2 =-log concentration of an antagonist (in this case, the test compound) which requires that the concentration of the related agonist (in this case noradrenaline) be doubled in the presence of the antagonist in order to produce the same effect as the agonist caused in the absence of the antagonist.

[1] = isolated rat vas deferens, Krebs Ringer, 37° C., noradrenaline agonist, Schildt plot, read-out: pA2 (α-receptor blockade) (converted)

Compound | Block of isopren. ED50 HR (heart rate blockade) (β-receptors) | Block of isopren. ED50 PR (peripheral resistance blockade) (β-receptors) | Kb (α-receptor; [1]) | Intrinsic activity (increase in heart rate relative to basal) (β-receptors) | Kb (α-receptor)
Cc1cccc(OCC(O)CNC(C)Cc2ccc(O)cc2)c1C (stereo not shown) [Ex. 9, 3-[2-(4-hydroxyphenyl)-1-methylethylamino]-1-[2,3-dimethylphenoxy]-propanol-2] | 0.26 mg/kg | 0.59 mg/kg | 794 nM |  | 
Cc1cccc(OCC(O)CNC(C)Cc2ccc(O)cc2)c1 (stereo not shown) [Ex. 15, 3-[2-(4-hydroxyphenyl)-1-methylethylamino]-1-m-methylphenoxy-propanol-2] | 0.3 mg/kg | 0.9 mg/kg | 6310 nM | +16 beats/min. | 
CC(C)NCC(O)COc1cccc2ccccc12 (stereo not shown) [Propranolol, propranolol, reference compound] | 0.1 mg/kg | 0.1 mg/kg |  | 0 beats/min. | 
Cc1ccccc1OCC(O)CNC(C)(C)Cc1ccc(O)cc1 (stereo not shown) [Ex. 5, 3-[2-(4-hydroxyphenyl)-1,1-dimethylethylamino]-1-o-methylphenoxy-propanol-2] | 0.06 mg/kg | 0.3 mg/kg | 1580 nM | +62 beats/min. | 
C=CCc1ccccc1OCC(O)CNC(C)Cc1ccc(O)cc1 (stereo not shown) [Ex. 3, 3-[2-(4-hydroxyphenyl)-1-methylethylamino]-1-o-allylphenoxy-propanol-2] | 0.7 mg/kg | 1.1 mg/kg |  | +33 beats/min. | 63.1 nM
COCCc1ccc(OCC(O)CNC(C)C)cc1 (stereo not shown) [Metoprolol, metoprolol, reference compound] | 0.2 mg/kg | 4.7 mg/kg |  | 0 beats/min. | 
CCc1ccccc1OCC(O)C(C)NC(C)Cc1ccc(O)cc1 (stereo not shown) [Ex. 11, 3-methyl-3-[2-(4-hydroxyphenyl)-1-methylethylamino]-1-o-ethylphenoxy-propanol-2] | 0.3 mg/kg | 0.5 mg/kg | 631 nM | +18 beats/min. | 
C#CCOc1ccccc1OCC(O)CNC(C)Cc1ccc(O)cc1 (stereo not shown) [Ex. 4, 3-[2-(4-hydroxyphenyl)-1-methylethylamino]-1-o-propargyloxyphenoxy-propanol-2] | 0.12 mg/kg | 0.35 mg/kg | 251 nM | +22 beats/min. | 
C=CCc1ccccc1OCC(O)C(CC)NC(C)Cc1ccc(O)cc1 (stereo not shown) [Ex. 12, 3-ethyl-3-[2-(4-hydroxyphenyl)-1-methylethylamino]-1-o-allylphenoxy-propanol-2] | 5.1 mg/kg | 3.3 mg/kg | 251 nM |  | 
Cc1ccccc1OCC(O)C(C)NC(C)(C)Cc1ccc(O)cc1 (stereo not shown) [Ex. 13, 3-methyl-3-[2-(4-hydroxyphenyl)-1,1-dimethylethylamino]-1-o-methylphenoxy-propanol-2] | 1.3 mg/kg | 8.5 mg/kg | 631 nM | +9 beats/min. | 
C=CCc1ccccc1OCC(O)C(C)NC(C)(C)Cc1ccc(O)cc1 (stereo not shown) [Ex. 14, 3-methyl-3-[2-(4-hydroxyphenyl)-1,1-dimethylethylamino]-1-o-allylphenoxy-propanol-2] | 2.5 mg/kg | 0.6 mg/kg | 39.8 nM | +3 beats/min. | 
C=CCc1ccccc1OCC(O)CNC(C)(C)Cc1ccc(O)cc1 (stereo not shown) [Ex. 7, 3-[2-(4-hydroxyphenyl)-1,1-dimethylethylamino]-1-o-allylphenoxy-propanol-2] | 0.09 mg/kg | 0.06 mg/kg | 398 nM | +39 beats/min. | 
COc1ccccc1OCC(O)CNC(C)Cc1ccc(O)cc1 (stereo not shown) [Ex. 10, 3-[2-(4-hydroxyphenyl)-1-methylethylamino]-1-o-methoxyphenoxy-propanol-2] | 0.04 mg/kg | 0.5 mg/kg | 398 nM | +40 beats/min. | 
Cc1ccccc1OCC(O)CNC(C)Cc1ccc(O)cc1 (stereo not shown) [Ex. 1, 3-[2-(4-hydroxyphenyl)-1-methylethylamino]-1-o-methylphenoxy-propanol-2] | 0.07 mg/kg | 0.07 mg/kg | 158 nM | +16 beats/min. | 
CCc1ccccc1OCC(O)CNC(C)Cc1ccc(O)cc1 (stereo not shown) [Ex. 2, 3-[2-(4-hydroxyphenyl)-1-methylethylamino]-1-o-ethylphenoxy-propanol-2] | 0.11 mg/kg | 0.15 mg/kg |  | +32 beats/min. | 63.1 nM
CCCc1ccccc1OCC(O)CNC(C)Cc1ccc(O)cc1 (stereo not shown) [Ex. 16, 3-[2-(4-hydroxyphenyl)-1-methylethylamino]-1-o-propylphenoxy-propanol-2] | 1.3 mg/kg | 0.8 mg/kg | 158 nM | +35 beats/min. | 
CCc1ccccc1OCC(O)CNC(C)(C)Cc1ccc(O)cc1 (stereo not shown) [Ex. 6, 3-[2-(4-hydroxyphenyl)-1,1-dimethylethylamino]-1-o-ethylphenoxy-propanol-2] | 0.04 mg/kg | 0.04 mg/kg | 158 nM | +38 beats/min. | 
